Read-outs that look alike come from different tables or passages of the source.
Experiments:
Assay in all cases: Kinase panel profiling at 1 µmol/L (MSA or IMAP), percentage inhibition
Type in all cases: biochemical
[1] = molecular target: T1, panel of 255 wild-type kinases (Homo sapiens, UniProt O14965)
T1 sequence (O14965 1-403): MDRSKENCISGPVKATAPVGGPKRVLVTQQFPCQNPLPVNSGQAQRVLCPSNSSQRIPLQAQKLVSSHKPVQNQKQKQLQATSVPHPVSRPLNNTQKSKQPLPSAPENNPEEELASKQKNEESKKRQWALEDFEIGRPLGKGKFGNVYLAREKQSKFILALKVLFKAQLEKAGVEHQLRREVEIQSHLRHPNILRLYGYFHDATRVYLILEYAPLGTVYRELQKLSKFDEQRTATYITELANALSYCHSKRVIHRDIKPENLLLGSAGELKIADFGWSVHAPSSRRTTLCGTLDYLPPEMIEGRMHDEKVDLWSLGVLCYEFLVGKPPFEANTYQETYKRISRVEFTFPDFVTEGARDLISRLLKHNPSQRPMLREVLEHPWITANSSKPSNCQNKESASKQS

[2] = system: panel of 255 wild-type kinases
[3] = molecular target: panel of 255 wild-type kinases (Homo sapiens, UniProt Q15119); conditions: read-out: %-inhibition at 1 µmol/L, PDHK2
[4] = molecular target: T2, panel of 255 wild-type kinases (Homo sapiens, UniProt Q96PY6); conditions: read-out: %-inhibition, NEK1
T2 sequence (Q96PY6 1-1258): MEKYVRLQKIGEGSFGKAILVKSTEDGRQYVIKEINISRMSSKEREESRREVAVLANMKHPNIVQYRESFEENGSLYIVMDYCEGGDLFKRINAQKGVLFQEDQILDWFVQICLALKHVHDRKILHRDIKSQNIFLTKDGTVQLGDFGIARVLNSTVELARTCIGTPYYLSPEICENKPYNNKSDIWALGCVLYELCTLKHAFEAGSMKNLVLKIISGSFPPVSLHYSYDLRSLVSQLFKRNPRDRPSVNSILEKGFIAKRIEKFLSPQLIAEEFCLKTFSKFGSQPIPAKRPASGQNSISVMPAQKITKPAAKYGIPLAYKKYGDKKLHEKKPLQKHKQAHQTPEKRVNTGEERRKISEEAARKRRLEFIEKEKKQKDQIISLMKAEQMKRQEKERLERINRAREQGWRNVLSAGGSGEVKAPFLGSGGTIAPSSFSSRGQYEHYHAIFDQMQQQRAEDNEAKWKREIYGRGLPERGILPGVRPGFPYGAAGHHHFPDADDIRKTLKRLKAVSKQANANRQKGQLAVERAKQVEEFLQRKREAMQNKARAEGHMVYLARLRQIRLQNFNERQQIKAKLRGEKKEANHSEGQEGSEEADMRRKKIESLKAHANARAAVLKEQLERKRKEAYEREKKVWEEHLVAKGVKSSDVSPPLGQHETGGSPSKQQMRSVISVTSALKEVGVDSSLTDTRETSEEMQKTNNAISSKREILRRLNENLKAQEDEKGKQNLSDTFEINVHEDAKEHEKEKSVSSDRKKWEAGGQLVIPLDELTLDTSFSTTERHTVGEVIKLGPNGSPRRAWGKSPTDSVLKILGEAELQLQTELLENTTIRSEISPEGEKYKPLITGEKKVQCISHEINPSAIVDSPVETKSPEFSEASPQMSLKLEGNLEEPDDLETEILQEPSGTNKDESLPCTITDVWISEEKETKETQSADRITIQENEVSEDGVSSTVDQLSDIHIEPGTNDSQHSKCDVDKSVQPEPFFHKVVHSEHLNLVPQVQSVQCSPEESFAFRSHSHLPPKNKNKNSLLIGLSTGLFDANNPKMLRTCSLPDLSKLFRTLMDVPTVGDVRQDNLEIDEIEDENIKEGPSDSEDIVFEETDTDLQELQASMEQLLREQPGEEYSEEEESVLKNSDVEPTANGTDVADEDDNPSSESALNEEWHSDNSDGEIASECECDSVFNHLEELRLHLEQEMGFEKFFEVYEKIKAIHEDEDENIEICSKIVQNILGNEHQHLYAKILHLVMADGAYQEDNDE

[5] = molecular target: T3, panel of 255 wild-type kinases (Homo sapiens, UniProt O14920); conditions: read-out: %-inhibition at 1 µmol/L, IKKβ
T3 sequence (O14920 1-756): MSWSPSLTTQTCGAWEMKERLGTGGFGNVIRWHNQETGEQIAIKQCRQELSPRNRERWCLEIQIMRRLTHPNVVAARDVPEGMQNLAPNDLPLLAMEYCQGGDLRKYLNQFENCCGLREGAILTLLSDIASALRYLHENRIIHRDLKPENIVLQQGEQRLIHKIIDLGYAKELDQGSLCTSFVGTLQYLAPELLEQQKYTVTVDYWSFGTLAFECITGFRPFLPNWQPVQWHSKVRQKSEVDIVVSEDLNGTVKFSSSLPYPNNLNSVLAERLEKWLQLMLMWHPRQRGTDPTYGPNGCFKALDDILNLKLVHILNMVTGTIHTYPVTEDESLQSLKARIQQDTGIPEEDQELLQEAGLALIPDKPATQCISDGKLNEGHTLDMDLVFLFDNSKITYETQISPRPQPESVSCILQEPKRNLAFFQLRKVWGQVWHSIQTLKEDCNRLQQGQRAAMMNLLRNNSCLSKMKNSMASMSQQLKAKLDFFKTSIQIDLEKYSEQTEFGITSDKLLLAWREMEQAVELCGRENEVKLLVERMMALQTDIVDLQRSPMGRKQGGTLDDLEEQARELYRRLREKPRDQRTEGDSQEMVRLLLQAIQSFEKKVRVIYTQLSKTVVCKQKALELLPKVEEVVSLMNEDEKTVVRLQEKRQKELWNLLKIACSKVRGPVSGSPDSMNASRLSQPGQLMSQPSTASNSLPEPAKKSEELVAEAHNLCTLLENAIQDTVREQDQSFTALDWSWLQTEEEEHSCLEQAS

[6] = molecular target: panel of 255 wild-type kinases (Homo sapiens, UniProt P31749); conditions: read-out: %-inhibition AKT1
[7] = AurA kinase assay, 1 µmol/L single concentration, read-out: %-inhibition AurA
[8] = AurA/TPX2 kinase assay, 1 µmol/L single concentration, read-out: %-inhibition AurA/TPX2
[9] = kinase FYN [isoform b], 1 µmol/L single concentration
[10] = kinase LYNb, 1 µmol/L single concentration
[11] = kinase PKCβ2, 1 µmol/L single concentration
[12] = kinase SRM, 1 µmol/L single concentration
[13] = kinase PDHK2, 1 µmol/L single concentration
[14] = NEK1, 1 µmol/L single concentration
[15] = kinase IKKβ, 1 µmol/L single concentration
[16] = AKT1 kinase assay, 1 µmol/L single concentration

| SMILES | inhibition at 1 µM [1, 7] | inhibition at 1 µM [1, 8] | %-inhibition at 1 µmol/L, FYN [isoform b] [2, 9] | %-inhibition at 1 µmol/L, LYNb [2, 10] | %-inhibition at 1 µmol/L, PKCβ2 [2, 11] | %-inhibition at 1 µmol/L, SRM [2, 12] | inhibition at 1 µM [3, 13] | inhibition at 1 µM [4, 14] | inhibition at 1 µM [5, 15] | inhibition at 1 µM [6, 16] | also measured |
| --- | --- | --- | --- | --- | --- | --- | --- | --- | --- | --- | --- |
| Cc1nc(NC(=O)N2CCC[C@H]2C(N)=O)sc1-c1ccnc(C(C)(C)C(F)(F)F)c1 [alpelisib] | -0.801% | -0.57% | -5.63% | 4.67% | 2.32% | 1% | 0.0902% | -0.542% | 0.111% | -6.35% | – |
| Cn1cc(-c2cc3c(N4CCN(c5ncc([C@@](C)(N)c6ccc(F)cc6)cn5)CC4)ncnn3c2)cn1 [avapritinib] | 4.62% | 10% | 3% | 83% | -0.278% | 0.441% | 0.651% | 56% | 0.049% | -9% | – |
| Cn1cnc2c(F)c(Nc3ccc(Br)cc3F)c(C(=O)NOCCO)cc21 [binimetinib] | -3% | -4% | 4% | 4.22% | -1.88% | -1.11% | -1.13% | -1.21% | -4% | -5% | – |
| CNC(=O)c1ccc(-c2cnc3ncc(Cc4ccc5ncccc5c4)n3n2)cc1F [capmatinib] | – | – | – | – | – | – | – | – | – | – | inhibition at 1 µM ([1]; read-out: %-inhibition AurA): 3.78%; inhibition at 1 µM ([1]; read-out: %-inhibition AurA/TPX2): -6%; %-inhibition at 1 µmol/L, FYN [isoform b] [2]: -1.2%; %-inhibition at 1 µmol/L, LYNb [2]: 0.305%; %-inhibition at 1 µmol/L, PKCβ2 [2]: -2%; %-inhibition at 1 µmol/L, SRM [2]: -0.916%; inhibition at 1 µM [3]: -2.62%; inhibition at 1 µM [4]: -8%; inhibition at 1 µM [5]: -0.588%; inhibition at 1 µM [6]: -10% |
| COc1cc2ncnc(Nc3ccc(F)c(Cl)c3)c2cc1NC(=O)/C=C/CN1CCCCC1 [dacomitinib] | -1.72% | 1% | 37% | 74% | 5.44% | 1.79% | 2.44% | 0.762% | 6% | -22% | – |
| C[C@H](Nc1ncnc2nc[nH]c12)c1cc2cccc(Cl)c2c(=O)n1-c1ccccc1 [duvelisib] | -4.54% | 1.81% | 0.6% | 3% | 1.61% | 4% | 3.57% | -3.74% | 0.466% | -6% | inhibition of profiled kinases in biochemical assays ([2]; 1 µmol/L inhibitor): did not inhibit FLT3 or any of the other profiled tyrosine or serine/threonine kinases |
| COC(=O)N[C@@H](C)CNc1nccc(-c2cn(C(C)C)nc2-c2cc(Cl)cc(NS(C)(=O)=O)c2F)n1 [encorafenib] | 0.211% | -3.31% | 4.62% | 4% | 2.15% | 85% | -2% | 2.84% | 0.644% | -2% | – |
| CN1CCN(c2ccc(C(=O)Nc3n[nH]c4ccc(Cc5cc(F)cc(F)c5)cc34)c(NC3CCOCC3)c2)CC1 [entrectinib] | 81% | 75% | – | – | – | – | 4.24% | -3.78% | -0.451% | -9% | %-inhibition at 1 µmol/L, FYN [isoform b] [2]: 95%; %-inhibition at 1 µmol/L, LYNb [2]: 72%; %-inhibition at 1 µmol/L, PKCβ2 [2]: 14%; %-inhibition at 1 µmol/L, SRM [2]: 72%; number of the 255 profiled kinases inhibited by more than 50% [2]: 75 |
| CCc1nc(C(N)=O)c(Nc2ccc(N3CCC(N4CCN(C)CC4)CC3)c(OC)c2)nc1NC1CCOCC1 [gilteritinib] | 80% | 71% | 86% | 84% | 31% | 23% | 5% | 5.59% | 5.66% | -22% | – |
| CCN1CCN(c2ccc(Nc3cc(N(C)C(=O)Nc4c(Cl)c(OC)cc(OC)c4Cl)ncn3)cc2)CC1 [infigratinib] | -5.38% | -10% | 43% | 84% | 1.5% | -2.75% | -3.38% | -5% | 0.304% | -12% | – |
| O=C(Nc1cnn2ccc(N3CCC[C@@H]3c3cc(F)ccc3F)nc12)N1CC[C@H](O)C1 [larotrectinib] | -4.5% | -3% | 1.64% | 1.48% | -2% | -3.2% | 5% | -2.72% | -1.76% | -15% | kinases inhibited by more than 50% ([2]; 1 µmol/L inhibitor): TRKA, TRKB, TRKC, ROS1, and ACK1 |

— article PMC9516332 (Frontiers in Oncology, 2022)
